# Target: JAK1 (Homo sapiens (Human), UniProt P23458)
# Experiment: Analysis of JAK1 activity inhibition ability (ADP-Glo Kinase Assay)
# Type: biochemical
# Conditions: JAK1 enzyme, ADP-Glo luminescence, ATP 250 uM, IRS-itide substrate, 30° C. 40 minutes; read-out: IC50
# Method in brief: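 ADP-Glo luminescence read-out of ADP production, with IC50 taken as the concentration halving JAK1 activity relative to control. Enzyme was incubated 40 min at 30 °C with compound, IRS-itide (40 ng/mL) and ATP (250 uM), concentrations as prepared in pH 7.5 Tris-HCl/MgCl2/BSA/DTT buffer.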
# Chain of JAK1 (P23458 whole entry): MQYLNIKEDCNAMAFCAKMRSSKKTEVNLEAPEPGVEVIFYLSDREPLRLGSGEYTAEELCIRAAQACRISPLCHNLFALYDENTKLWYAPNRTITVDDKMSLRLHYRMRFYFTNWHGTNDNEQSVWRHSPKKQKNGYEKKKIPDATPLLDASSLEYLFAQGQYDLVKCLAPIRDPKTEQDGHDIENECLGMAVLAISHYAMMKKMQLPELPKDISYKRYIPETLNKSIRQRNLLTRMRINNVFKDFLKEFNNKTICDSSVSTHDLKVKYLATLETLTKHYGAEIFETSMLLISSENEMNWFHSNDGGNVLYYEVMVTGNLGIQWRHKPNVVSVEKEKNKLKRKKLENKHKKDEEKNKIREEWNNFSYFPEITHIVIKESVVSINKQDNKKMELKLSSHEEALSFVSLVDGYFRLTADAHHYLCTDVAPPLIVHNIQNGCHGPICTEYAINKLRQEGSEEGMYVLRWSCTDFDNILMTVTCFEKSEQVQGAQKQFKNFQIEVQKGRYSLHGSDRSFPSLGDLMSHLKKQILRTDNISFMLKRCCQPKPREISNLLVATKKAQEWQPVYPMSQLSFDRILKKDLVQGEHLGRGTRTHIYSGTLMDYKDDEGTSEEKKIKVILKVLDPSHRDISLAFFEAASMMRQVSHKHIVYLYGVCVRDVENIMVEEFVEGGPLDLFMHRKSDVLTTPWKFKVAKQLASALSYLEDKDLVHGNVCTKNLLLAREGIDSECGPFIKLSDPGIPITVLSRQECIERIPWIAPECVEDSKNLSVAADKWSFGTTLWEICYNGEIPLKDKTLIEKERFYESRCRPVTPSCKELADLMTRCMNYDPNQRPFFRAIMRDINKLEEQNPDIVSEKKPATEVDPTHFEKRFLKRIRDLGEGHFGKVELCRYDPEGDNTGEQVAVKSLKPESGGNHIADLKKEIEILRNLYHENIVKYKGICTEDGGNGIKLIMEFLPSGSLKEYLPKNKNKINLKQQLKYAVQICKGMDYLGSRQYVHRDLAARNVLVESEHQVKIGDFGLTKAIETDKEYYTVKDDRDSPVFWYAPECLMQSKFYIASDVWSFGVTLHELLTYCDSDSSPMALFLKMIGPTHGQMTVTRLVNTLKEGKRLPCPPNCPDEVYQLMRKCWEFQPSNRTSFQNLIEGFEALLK
row,SMILES,IC50 [nM]
1,"N#CCC(=O)N1CC=C(c2cc(NC(=O)C3CC3)nc3[nH]ccc23)CCC1 [Example 422, N-(4-(1-(2-cyanoacetyl)-2,5,6,7-tetrahydro-1H-azepin-4-yl)-1H-pyrrolo[2,3-b]pyridin-6-yl)cyclopropanecarboxamide]",< 20
2,"O=C(Nc1cc(C2=CCN(C(=O)c3ccnc(F)c3)CCC2)c2cc[nH]c2n1)C1CC1 [Example 423, N-(4-(1-(2-fluoroisonicotinoyl)-2,5,6,7-tetrahydro-1H-azepin-4-yl)-1H-pyrrolo[2,3-b]pyridin-6-yl)cyclopropanecarboxamide]",< 20
3,"O=C(Nc1cc(C2=CCN(C(=O)c3ccnc(F)c3F)CCC2)c2cc[nH]c2n1)C1CC1 [Example 424, N-(4-(1-(2,3-difluoroisonicotinoyl)-2,5,6,7-tetrahydro-1H-azepin-4-yl)-1H-pyrrolo[2,3-b]pyridin-6-yl)cyclopropanecarboxamide]",< 20
4,"N#CCC(=O)N1CC=C(c2nc(NC(=O)C3CC3)nc3[nH]ccc23)CC1 [Example 425, N-(4-(1-(2-cyanoacetyl)-1,2,3,6-tetrahydropyridin-4-yl)-7H-pyrrolo[2,3-d]pyrimidin-2-yl)cyclopropanecarboxamide]",20 to 200
5,"N#CCC(=O)N1CC=C(c2cc(NC(=O)C3CC3)nc3[nH]ccc23)C1 [Example 426, N-(4-(1-(2-cyanoacetyl)-2,5-dihydro-1H-pyrrol-3-yl)-1H-pyrrolo[2,3-b]pyridin-6-yl)cyclopropanecarboxamide]",> 200
6,"N#CCCC(=O)N1CC=C(c2cc(NC(=O)C3CC3)nc3[nH]ccc23)C1 [Example 427, N-(4-(1-(3-cyanopropanoyl)-2,5-dihydro-1H-pyrrol-3-yl)-1H-pyrrolo[2,3-b]pyridin-6-yl)cyclopropanecarboxamide]",> 200
7,"O=C(Nc1cc(C2=CCN(C(=O)CC(F)(F)F)C2)c2cc[nH]c2n1)C1CC1 [Example 428, N-(4-(1-(3,3,3-trifluoropropanoyl)-2,5-dihydro-1H-pyrrol-3-yl)-1H-pyrrolo[2,3-b]pyridin-6-yl)cyclopropanecarboxamide]",> 200
8,"O=C(Nc1cc(C2=CCN(C(=O)CCC(F)(F)F)C2)c2cc[nH]c2n1)C1CC1 [Example 429, N-(4-(1-(4,4,4-trifluorobutanoyl)-2,5-dihydro-1H-pyrrol-3-yl)-1H-pyrrolo[2,3-b]pyridin-6-yl)cyclopropanecarboxamide]",> 200
9,"N#CC1(C(=O)N2CC=C(c3cc(NC(=O)C4CC4)nc4[nH]ccc34)C2)CC1 [Example 430, N-(4-(1-(1-cyanocyclopropane-1-carbonyl)-2,5-dihydro-1H-pyrrol-3-yl)-1H-pyrrolo[2,3-b]pyridin-6-yl)cyclopropanecarboxamide]",> 200
10,"CCNC(=O)Nc1ccc(-c2cc(NC(=O)C3CC3)nc3[nH]ccc23)cc1 [Example 431, N-(4-(4-(3-ethylureido)phenyl)-1H-pyrrolo[2,3-b]pyridin-6-yl)cyclopropanecarboxamide]",20 to 200
11,"O=C(Nc1cc(-c2ccc(NC(=O)N3CCOCC3)cc2)c2cc[nH]c2n1)C1CC1 [Example 432, N-(4-(6-(cyclopropanecarboxamido)-1H-pyrrolo[2,3-b]pyridin-4-yl)phenyl)morpholine-4-carboxamide]",20 to 200
12,"CCCCNC(=O)Nc1ccc(-c2cc(NC(=O)C3CC3)nc3[nH]ccc23)cc1 [Example 433, N-(4-(4-(3-butylureido)phenyl)-1H-pyrrolo[2,3-b]pyridin-6-yl)cyclopropanecarboxamide]",20 to 200
13,"O=C(NCC(F)(F)F)Nc1ccc(-c2cc(NC(=O)C3CC3)nc3[nH]ccc23)cc1 [Example 435, N-(4-(4-(3-(2,2,2-trifluoroethyl)ureido)phenyl)-1H-pyrrolo[2,3-b]pyridin-6-yl)cyclopropanecarboxamide]",20 to 200
14,"Cc1cc(NC(=O)NCC(F)(F)F)ccc1-c1cc(NC(=O)C2CC2)nc2[nH]ccc12 [Example 436, N-(4-(2-methyl-4-(3-(2,2,2-trifluoroethyl)ureido)phenyl)-1H-pyrrolo[2,3-b]pyridin-6-yl)cyclopropanecarboxamide]",20 to 200
15,"O=C(Nc1cc(C2=CC3CCC(C2)N3C(=O)NCC(F)(F)F)c2cc[nH]c2n1)C1CC1 (stereo not drawn) [Example 448, 3-(6-(cyclopropanecarboxamido)-1H-pyrrolo[2,3-b]pyridin-4-yl)-N-(2,2,2-trifluoroethyl)-8-azabicyclo[3.2.1]oct-2-ene-8-carboxamide]",< 20
16,"CCCCNC(=O)N1C2C=C(c3cc(NC(=O)C4CC4)nc4[nH]ccc34)CC1CC2 (stereo not drawn) [Example 449, N-butyl-3-(6-(cyclopropanecarboxamido)-1H-pyrrolo[2,3-b]pyridin-4-yl)-8-azabicyclo[3.2.1]oct-2-ene-8-carboxamide]",20 to 200

# The next lines start with the values.
row,IC50 [nM],SMILES
1,> 200,"O=C(Nc1ccc(-c2nc(NC(=O)C3CC3)nc3[nH]ccc23)cc1)NC1CC1 [Example 437, N-(4-(4-(3-cyclopropylureido)phenyl)-7H-pyrrolo[2,3-d]pyrimidin-2-yl)cyclopropanecarboxamide]"
2,> 200,"CCNC(=O)Nc1ccc(-c2nc(NC(=O)C3CC3)nc3[nH]ccc23)cc1 [Example 438, N-(4-(4-(3-ethylureido)phenyl)-7H-pyrrolo[2,3-d]pyrimidin-2-yl)cyclopropanecarboxamide]"
3,20 to 200,"CCCCNC(=O)Nc1ccc(-c2nc(NC(=O)C3CC3)nc3[nH]ccc23)cc1 [Example 439, N-(4-(4-(3-butylureido)phenyl)-7H-pyrrolo[2,3-d]pyrimidin-2-yl)cyclopropanecarboxamide]"
4,20 to 200,"O=C(Nc1ccc(-c2nc(NC(=O)C3CC3)nc3[nH]ccc23)cc1)Nc1ccc(F)c(F)c1 [Example 440, N-(4-(4-(3-(3,4-difluorophenyl)ureido)phenyl)-7H-pyrrolo[2,3-d]pyrimidin-2-yl)cyclopropanecarboxamide]"
5,20 to 200,"O=C(Nc1ccc(F)cc1)Nc1ccc(-c2nc(NC(=O)C3CC3)nc3[nH]ccc23)cc1 [Example 441, N-(4-(4-(3-(4-fluorophenyl)ureido)phenyl)-7H-pyrrolo[2,3-d]pyrimidin-2-yl)cyclopropanecarboxamide]"
6,< 20,"O=C(NCC(F)(F)F)NC1CC=C(c2cc(NC(=O)C3CC3)nc3[nH]ccc23)CC1 (stereo not drawn) [Example 442, N-(4-(4-(3-(2,2,2-trifluoroethyl)ureido)cyclohex-1-en-1-yl)-1H-pyrrolo[2,3-b]pyridin-6-yl)cyclopropanecarboxamide]"
7,< 20,"O=C(Nc1cc(C2=CCN(C(=O)NCC(F)(F)F)CC2)c2cc[nH]c2n1)C1CC1 [Example 443, 4-(6-(cyclopropanecarboxamido)-1H-pyrrolo[2,3-b]pyridin-4-yl)-N-(2,2,2-trifluoroethyl)-3,6-dihydropyridine-1 (2H)-carboxamide]"
8,20 to 200,"CCCCNC(=O)N1CC=C(c2cc(NC(=O)C3CC3)nc3[nH]ccc23)CC1 [Example 444, N-butyl-4-(6-(cyclopropanecarboxamido)-1H-pyrrolo[2,3-b]pyridin-4-yl)-3,6-dihydropyridine-1 (2H)-carboxamide]"
9,20 to 200,"O=C(Nc1cc(C2=CCN(C(=O)N3CCS(=O)(=O)CC3)CC2)c2cc[nH]c2n1)C1CC1 [Example 445, N-(4-(1-(1,1-dioxidothiomorpholine-4-carbonyl)-1,2,3,6-tetrahydropyridin-4-yl)-1H-pyrrolo[2,3-b]pyridin-6-yl)cyclopropanecarboxamide]"
10,> 200,"O=C(Nc1cc(C2=CCN(C(=O)N3CCOCC3)CC2)c2cc[nH]c2n1)C1CC1 [Example 446, N-(4-(1-(morpholine-4-carbonyl)-1,2,3,6-tetrahydropyridin-4-yl)-1H-pyrrolo[2,3-b]pyridin-6-yl)cyclopropanecarboxamide]"
11,20 to 200,"N#CCNC(=O)N1CC=C(c2cc(NC(=O)C3CC3)nc3[nH]ccc23)CC1 [Example 447, N-(cyanomethyl)-4-(6-(cyclopropanecarboxamido)-1H-pyrrolo[2,3-b]pyridin-4-yl)-3,6-dihydropyridine-1 (2H)-carboxamide]"
12,> 200,"O=C(Nc1cc(C2=CCN(C(=O)NC(C3CC3)C(F)(F)F)CC2)c2cc[nH]c2n1)C1CC1 (stereo not drawn) [Example 450, 4-(6-(cyclopropanecarboxamido)-1H-pyrrolo[2,3-b]pyridin-4-yl)-N-(1-cyclopropyl-2,2,2-trifluoroethyl)-3,6-dihydropyridine-1 (2H)-carboxamide]"
13,20 to 200,"O=C(Nc1cc(C2=CCN(C(=O)n3ccnc3)CC2)c2cc[nH]c2n1)C1CC1 [Example 451, N-(4-(1-(1H-imidazole-1-carbonyl)-1,2,3,6-tetrahydropyridin-4-yl)-1H-pyrrolo[2,3-b]pyridin-6-yl)cyclopropanecarboxamide]"
14,< 20,"CC1CN(C(=O)n2ccnc2)CC=C1c1cc(NC(=O)C2CC2)nc2[nH]ccc12 (stereo not drawn) [Example 452, N-(4-(1-(1H-imidazole-1-carbonyl)-3-methyl-1,2,3,6-tetrahydropyridin-4-yl)-1H-pyrrolo[2,3-b]pyridin-6-yl)cyclopropanecarboxamide]"
15,< 20,"CC1CN(C(=O)NCC(F)(F)F)CC=C1c1cc(NC(=O)C2CC2)nc2[nH]ccc12 (stereo not drawn) [Example 453, 4-(6-(cyclopropanecarboxamido)-1H-pyrrolo[2,3-b]pyridin-4-yl)-3-methyl-N-(2,2,2-trifluoroethyl)-3,6-dihydropyridine-1 (2H)-carboxamide]"
16,20 to 200,"CC(C)(C)OC(=O)N1CC=C(c2cc(NC(=O)C3CC3)nc3[nH]ccc23)CC1 [Example 454, tert-butyl 4-(6-(cyclopropanecarboxamido)-1H-pyrrolo[2,3-b]pyridin-4-yl)-3,6-dihydropyridine-1 (2H)-carboxylate]"
17,< 20,"N#CCOC(=O)N1CC=C(c2cc(NC(=O)C3CC3)nc3[nH]ccc23)CC1 [Example 455, cyanomethyl 4-(6-(cyclopropanecarboxamido)-1H-pyrrolo[2,3-b]pyridin-4-yl)-3,6-dihydropyridine-1 (2H)-carboxylate]"

# Source: patent publication US11524968B2, “Heterocyclic compound as a protein kinase inhibitor” (HK inno.N Corporation, priority 2017, dated 2022)
